{"source": "patent US11230535B2", "about": "“CFTR regulators and methods of use thereof” (THE REGENTS OF THE UNIVERSITY OF CALIFORNIA, priority 2015, dated 2022)", "key": {"[1]": {"experiment": "7-day oral toxicity study in mice (blood count, serum chemistry, body weight, lung wet/dry weight)", "format": "in vivo, mouse", "from_the_text": "Chronic administration and toxicity studies."}, "closed mid-jejunal loops": {"tested_on": "closed mid-jejunal loops", "experiment": "In vivo intestinal fluid secretion in closed mid-jejunal loops", "parameters": "species or system mouse", "conditions": "90 min", "procedure": "(§1) Mice (wildtype or CF) were given access to 5% dextrose water but not solid food for 24 h before experiments. Mice were anesthetized with isoflurane and body temperature was maintained during surgery at 36-38° C. using a heating pad. A small abdominal incision was made to expose the small intestine, and closed mid-jejunal loops (length 2-3 cm) were isolated by sutures. Loops were injected with 100 μL vehicle alone or 100 μg CFTRact-J027 in vehicle. The abdominal incision was closed with sutures, and mice were allowed to recover from anesthesia. Intestinal loops were removed at 90 min and loop length and weight were measured to quantify fluid secretion. Intestinal absorption was measured in CF mice (to prevent secretion) as described above, except that the loops were removed at 0 or 30 min. Absorption was calculated as 1−(loop weight at 0 min−loop weight at 30 min)/loop weight at 0 min.\n(§2) In vivo intestinal secretion and absorption. Mice (wildtype or CF) were given access to 5% dextrose water but not solid food for 24 h before experiments. […] Intestinal loops were removed at 90 min and loop length and weight were measured to quantify fluid secretion. Intestinal absorption was measured in CF mice (to prevent secretion) as described above, except that the loops were removed at 0 or 30 min. Absorption was calculated as 1−(loop weight at 0 min−loop weight at 30 min)/loop weight at 0 min."}, "[2]": {"tested_on": "closed mid-jejunal loops of cystic fibrosis mice", "experiment": "In vivo intestinal fluid absorption in closed mid-jejunal loops of CF mice", "parameters": "species or system mouse", "conditions": "30 min", "procedure": "as §1, §2"}, "loperamide-treated mice": {"tested_on": "loperamide-treated mice", "experiment": "Loperamide-induced mouse model of constipation (3-h stool weight, pellet number, water content)"}, "ΔF508-CFTR": {"molecular_target": "T1, ΔF508-CFTR (Homo sapiens, UniProt P13569, DEL508-508)", "T1 construct": "expressed in transfected cells; host or cells: Fischer rat thyroid (FRT) cells", "T1 sequence (P13569 with tags, fused parts or gaps DEL508-508)": "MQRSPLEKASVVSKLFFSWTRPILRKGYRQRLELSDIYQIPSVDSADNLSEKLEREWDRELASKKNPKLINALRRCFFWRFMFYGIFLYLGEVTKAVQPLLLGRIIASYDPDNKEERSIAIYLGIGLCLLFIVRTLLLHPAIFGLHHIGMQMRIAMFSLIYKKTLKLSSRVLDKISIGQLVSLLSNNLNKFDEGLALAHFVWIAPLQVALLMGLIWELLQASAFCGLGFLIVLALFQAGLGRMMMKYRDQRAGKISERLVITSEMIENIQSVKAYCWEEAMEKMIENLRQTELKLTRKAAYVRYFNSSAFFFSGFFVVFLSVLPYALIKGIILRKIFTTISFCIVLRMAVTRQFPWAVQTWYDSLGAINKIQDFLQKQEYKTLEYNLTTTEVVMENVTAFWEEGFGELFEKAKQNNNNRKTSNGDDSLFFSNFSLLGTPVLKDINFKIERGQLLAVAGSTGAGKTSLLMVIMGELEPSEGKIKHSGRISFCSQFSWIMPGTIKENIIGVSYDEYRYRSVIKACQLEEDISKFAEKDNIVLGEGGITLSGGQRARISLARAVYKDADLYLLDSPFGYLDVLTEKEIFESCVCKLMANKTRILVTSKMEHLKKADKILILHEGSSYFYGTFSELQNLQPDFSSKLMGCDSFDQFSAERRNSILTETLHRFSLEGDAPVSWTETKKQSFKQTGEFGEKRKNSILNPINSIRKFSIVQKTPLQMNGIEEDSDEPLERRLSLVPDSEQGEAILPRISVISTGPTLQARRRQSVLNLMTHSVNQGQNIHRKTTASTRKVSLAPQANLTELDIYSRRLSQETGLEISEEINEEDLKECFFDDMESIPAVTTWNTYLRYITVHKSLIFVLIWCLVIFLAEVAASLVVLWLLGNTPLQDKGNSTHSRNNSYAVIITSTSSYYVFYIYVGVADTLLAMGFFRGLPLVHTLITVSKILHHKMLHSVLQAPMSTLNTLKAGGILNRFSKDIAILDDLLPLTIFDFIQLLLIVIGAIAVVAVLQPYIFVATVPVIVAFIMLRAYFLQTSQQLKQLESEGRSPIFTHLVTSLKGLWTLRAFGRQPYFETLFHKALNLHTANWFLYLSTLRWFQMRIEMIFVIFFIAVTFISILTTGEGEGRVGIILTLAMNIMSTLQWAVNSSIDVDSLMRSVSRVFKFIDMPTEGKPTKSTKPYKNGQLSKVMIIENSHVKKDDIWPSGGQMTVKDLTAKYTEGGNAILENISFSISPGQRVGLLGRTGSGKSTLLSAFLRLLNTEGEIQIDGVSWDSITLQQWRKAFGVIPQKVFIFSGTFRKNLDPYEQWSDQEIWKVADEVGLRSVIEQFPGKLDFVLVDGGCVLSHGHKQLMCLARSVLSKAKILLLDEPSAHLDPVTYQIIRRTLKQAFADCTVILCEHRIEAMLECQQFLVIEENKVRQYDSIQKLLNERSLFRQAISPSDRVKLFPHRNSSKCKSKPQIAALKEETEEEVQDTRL", "experiment": "Short-circuit current in FRT cells expressing ΔF508-CFTR after corrector (VX-809)", "format": "cell-based", "conditions": "overnight corrector", "procedure": "FIGS. 9A-9E. Characterization of CFTR activation by CFTRact-J027. Short-circuit current measured in FRT cells expressing human wild-type CFTR (FIG. 9A) and ΔF508-CFTR (FIG. 9C) showing responses to indicated concentrations of forskolin (fsk), CFTRact-J027, and VX-770. The ΔF508-CFTR-expressing FRT cells were corrected with 3 μM VX-809 at 37° C. for 24 h before measurement. CFTRinh-172 (Inh-172, 10 μM) was added where indicated. FIG. 9B. CFTRact-J027 concentration-dependent activation of wild-type CFTR Cl^− current (S.E.; n=3 cultures). FIG. 9D. Short-circuit current in mouse colon showing responses to indicated concentrations of forskolin (fsk), CFTRact-J027, and CFTRinh-172. FIG. 9E. Assay of cAMP concentration in FRT cells measured following 10-min incubation with indicated concentrations of forskolin and 5 μM CFTRact-J027. Positive controls included forskolin (100 nM and 20 μM), and forskolin plus 3-isobutyl-1-methylxanthine (IBMX, 100 μM) (mean±SE, n=4-8).\nThe increase in current at high CFTRact-J027 was further increased by forskolin, which may be a consequence of activation of a basolateral membrane cAMP-sensitive K^+ channel that increases the driving force for apical membrane Cl^− secretion."}, "mouse liver microsomes": {"tested_on": "mouse liver microsomes", "experiment": "In vitro metabolic stability in mouse liver microsomes", "format": "in vitro ADME", "procedure": "(§3) CFTRact-J027 (5 μM) was incubated for specified times at 37° C. with mouse liver microsomes (1 mg protein/ml; Sigma-Aldrich) in potassium phosphate buffer (100 mM) containing 1 mM NADPH, as described. The mixture was then chilled on ice, and 0.5 ml of ice-cold ethyl acetate was added. Samples were centrifuged for 15 min at 3000 rpm, the supernatant evaporated to dryness, and the residue was dissolved in 100 μL mobile phase (acetonitrile:water, 3:1) for LC/MS and assayed as described above.\nas §3, with “In vitro metabolic stability. CFTRact-J027” for “CFTRact-J027”"}, "[3]": {"experiment": "Tear film pharmacokinetics (LC/MS of tear washes)"}, "[4]": {"conditions": "10 mg/kg oral once per day, 7 days"}}, "note": "Entries after “also recorded” stand apart in the source; their conditions may differ."}
{"smiles": "Nc1ccc([N+](=O)[O-])cc1-c1nc2ccccc2n(Cc2ccccc2)c1=O", "note": "[CFTRact-J027, 3-(2-amino-5-nitrophenyl)-1-benzylquinoxalin-2(1H)-one]", "values": [{"measurement": "toxicity after chronic administration", "setting": "[1]; 10 mg/kg oral", "result": "without apparent toxicity"}, {"measurement": "ALP", "setting": "[1]; [4]", "result": "53 ± 2.5", "unit": "U/L"}, {"measurement": "ALT", "setting": "[1]; [4]", "result": "44 ± 6", "unit": "U/L"}, {"measurement": "AST", "setting": "[1]; [4]", "result": "105 ± 11", "unit": "U/L"}, {"measurement": "Albumin", "setting": "[1]; [4]", "result": "2.9 ± 0.03", "unit": "g/dL"}, {"measurement": "BUN", "setting": "[1]; [4]", "result": "18.4 ± 1.2", "unit": "mg/dL"}, {"measurement": "Bicarbonate", "setting": "[1]; [4]", "result": "16 ± 1.7", "unit": "mmol/L"}, {"measurement": "CK", "setting": "[1]; [4]", "result": "312 ± 62", "unit": "U/L"}, {"measurement": "Calcium", "setting": "[1]; [4]", "result": "8.5 ± 0.04", "unit": "mg/dL"}, {"measurement": "Chloride", "setting": "[1]; [4]", "result": "115 ± 1", "unit": "mmol/L"}, {"measurement": "Cholesterol", "setting": "[1]; [4]", "result": "121 ± 6", "unit": "mg/dL"}, {"measurement": "Creatinine", "setting": "[1]; [4]", "result": "0.2 ± 0", "unit": "mg/dL"}, {"measurement": "Globulin", "setting": "[1]; [4]", "result": "2.2 ± 0.1", "unit": "g/dL"}, {"measurement": "Glucose", "setting": "[1]; [4]", "result": "164 ± 6", "unit": "mg/dL"}, {"measurement": "Hemoglobin", "setting": "[1]; [4]", "result": "12.8 ± 0.3", "unit": "g/dL"}, {"measurement": "Leukocytes", "setting": "[1]; [4]", "result": "1.9 ± 0.5 10^3/μL"}, {"measurement": "Phosphorus", "setting": "[1]; [4]", "result": "6.8 ± 0.3", "unit": "mg/dL"}, {"measurement": "Potassium", "setting": "[1]; [4]", "result": "4.4 ± 0.1", "unit": "mmol/L"}, {"measurement": "Sodium", "setting": "[1]; [4]", "result": "151 ± 0.7", "unit": "mmol/L"}, {"measurement": "Thrombocytes", "setting": "[1]; [4]", "result": "900 ± 48 10^3/μL"}, {"measurement": "Total bilirubin", "setting": "[1]; [4]", "result": "0.1 ± 0", "unit": "mg/dL"}, {"measurement": "Total protein", "setting": "[1]; [4]", "result": "5.2 ± 0.1", "unit": "g/dL"}, {"measurement": "body weight and airway/lung fluid accumulation", "setting": "[1]; 7-day treated mice", "result": "nor did it change body weight or produce airway/lung fluid accumulation"}, {"measurement": "lung water content", "setting": "[1]; 7-day treated mice", "result": "normal lung water content"}, {"measurement": "serum chemistry and blood parameters, in words", "setting": "[1]; 7-day treated mice", "result": "did not affect the major serum chemistry and blood parameters"}, {"measurement": "increase in loop weight/length ratio", "setting": "closed mid-jejunal loops; 100 μg per loop, wild-type mice", "result": 140, "unit": "%"}, {"measurement": "loop fluid secretion in cystic fibrosis mice", "setting": "closed mid-jejunal loops; CF mice", "result": "without effect"}, {"measurement": "intestinal fluid absorption", "setting": "[2]", "result": "did not affect intestinal fluid absorption"}, {"measurement": "stool weight, pellet number, water content", "setting": "loperamide-treated mice; 10 mg/kg ip, loperamide-treated mice", "result": "normalized each of the stool parameters"}, {"measurement": "efficacy after chronic administration", "setting": "loperamide-treated mice; 10 mg/kg oral daily for 7 days, loperamide 1 h after final dose", "result": "remained effective in normalizing stool output and water content"}, {"measurement": "effect on stool parameters in cystic fibrosis mice", "setting": "loperamide-treated mice; CF mice lacking functional CFTR", "result": "without effect"}, {"measurement": "stool output or water content in control mice", "setting": "loperamide-treated mice; ip, non-loperamide-treated mice", "result": "did not affect stool output or water content"}, {"measurement": "stool output, oral, control mice", "setting": "loperamide-treated mice; oral 10 mg/kg, control mice", "result": "no effect"}, {"measurement": "stool output and water content, oral administration", "setting": "loperamide-treated mice; oral (10 mg/kg) 1 h before loperamide, 10 mg/kg", "result": "normalized stool output and water content; also recorded: effective in normalizing stool output and water content"}, {"measurement": "ED50, oral administration", "setting": "loperamide-treated mice; oral, loperamide model", "result": 0.5, "unit": "mg/kg"}, {"measurement": "potentiation of ΔF508-CFTR", "setting": "ΔF508-CFTR", "result": "substantially less potent than ivacaftor; also recorded: only a weak potentiator"}, {"measurement": "elimination half-life in microsomes", "setting": "mouse liver microsomes; 5 μM, mouse liver microsomes, NADPH", "result": "~21", "unit": "min"}, {"measurement": "original compound remaining at 60 min", "setting": "mouse liver microsomes; 60 min", "result": 7, "unit": "%"}, {"measurement": "hepatic microsomal metabolism, in words", "setting": "mouse liver microsomes; mouse liver microsomes, NADPH", "result": "rapid hepatic metabolism; also recorded: rapidly metabolized"}]}
{"smiles": "CCN(CC)c1nc(Nc2ccccc2)nc(OC(C(F)(F)F)C(F)(F)F)n1", "note": "[CFTRact-K089, N,N-Diethyl-6-[(1,1,1,3,3,3-hexafluoropropan-2-yl)oxy]-N′-phenyl-1,3,5-triazine-2,4-diamine]", "values": [{"measurement": "amount recovered from tear fluid at six hours", "setting": "[3]; 0.1 nmol (2 μL, 50 μM) instilled", "result": "0.011 ± 0.004", "unit": "pmol"}, {"measurement": "duration of predicted therapeutic levels in tear fluid", "setting": "[3]; 0.1 nmol instilled", "result": "at least six"}, {"measurement": "tear film bioavailability, in words", "setting": "[3]; topical", "result": "sustained tear film bioavailability"}]}
